Laboratory results as given in the supplement of paper PMC10307832.

Experiments:
Assay in all cases: relative viability (nuclei count vs DMSO), 5 days (fraction); higher = more cells survive
[1] = compound: C[C@@H](Oc1cc(-c2cnn(C3CCNCC3)c2)cnc1N)c1c(Cl)ccc(F)c1Cl [Crizotinib] + COc1cccc2cc(-c3nc([C@H]4CC[C@H](C(=O)O)CC4)n4ncnc(N)c34)[nH]c12 [OSI-027] (partner 0.5 µM)
Summary of the method: (§1)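 Lung cancer cell lines were seeded in 1536-well plates and dosed by pin tool the next day, with either a single drug or a fixed anchor-drug dose combined with five library-drug doses (not always all listed) spaced in √10 steps. Five days later, one step fixed the cells and stained their nuclei (final 0.05% Triton X-100, 1% formaldehyde, 1 ug/ml Hoechst), and nuclei were counted on 4× images. Relative viability is the nuclei count in treated wells divided by the count in vehicle wells, and each value is the median of duplicate plates.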

[2] = compound: O=C(c1cc(Cc2n[nH]c(=O)c3ccccc23)ccc1F)N1CCN(C(=O)C2CC2)CC1 [Olaparib] + Cc1nc(Nc2ncc(C(=O)Nc3c(C)cccc3Cl)s2)cc(N2CCN(CCO)CC2)n1 [Dasatinib] (partner 0.075 µM)
Summary of the method: as §1

[3] = compound: O=C(c1cc(Cc2n[nH]c(=O)c3ccccc23)ccc1F)N1CCN(C(=O)C2CC2)CC1 [Olaparib] + CS(=O)(=O)CCNCc1ccc(-c2ccc3ncnc(Nc4ccc(OCc5cccc(F)c5)c(Cl)c4)c3c2)o1 [Lapatinib] (partner 2 µM)
Summary of the method: as §1

[4] = compound: O=C(c1cc(Cc2n[nH]c(=O)c3ccccc23)ccc1F)N1CCN(C(=O)C2CC2)CC1 [Olaparib] + CC1(C)CCC(c2ccc(Cl)cc2)=C(CN2CCN(c3ccc(C(=O)NS(=O)(=O)c4ccc(N[C@H](CCN5CCOCC5)CSc5ccccc5)c(S(=O)(=O)C(F)(F)F)c4)cc3)CC2)C1 [Navitoclax] (partner 0.5 µM)
Summary of the method: as §1

Cell Line	relative viability ([1]; first compound 0.01 µM)	relative viability ([1]; first compound 0.03162 µM)	relative viability ([1]; first compound 0.1 µM)	relative viability ([1]; first compound 0.3162 µM)	relative viability ([1]; first compound 1 µM)	relative viability ([2]; first compound 0.08 µM)	relative viability ([2]; first compound 0.253 µM)	relative viability ([2]; first compound 2.53 µM)	relative viability ([2]; first compound 8 µM)	relative viability ([3]; first compound 0.08 µM)	relative viability ([3]; first compound 0.253 µM)	relative viability ([3]; first compound 2.53 µM)	relative viability ([3]; first compound 8 µM)	relative viability ([4]; first compound 0.08 µM)	relative viability ([4]; first compound 0.253 µM)	relative viability ([4]; first compound 2.53 µM)	relative viability ([4]; first compound 8 µM)
NCI-H3122	0.896	0.909	0.79	0.218	0.16	0.463	0.823	0.873	0.696	1.02	0.934	0.936	0.946	0.948	0.976	0.964	0.86
PC-3 [JPC-3]	0.786	0.802	0.76	0.683	0.745	1.08	0.902	1.01	0.895	0.558	0.417	0.429	0.463	0.784	0.729	0.743	0.76
PC-14	0.826	0.898	0.8	0.867	1.03	0.333	0.231	0.311	0.205	0.368	0.319	0.298	0.307	1.04	0.934	0.867	0.722
RERF-LC-KJ	0.518	0.619	0.521	0.542	0.612	0.891	0.81	0.858	0.8	0.872	0.831	0.971	0.872	1.04	0.862	0.998	1.09
SK-LU-1	0.36	0.342	0.331	0.324	0.353	0.197	0.159	0.181	0.161	1.2	0.803	0.83	0.683	0.941	0.785	0.749	0.409
SK-MES-1	0.612	0.646	0.568	0.556	0.586	0.41	0.323	0.431	0.228	0.537	0.491	0.501	0.433	1.15	1.07	1.13	0.825
SW 1573	0.538	0.609	0.563	0.59	0.587	0.698	0.456	0.504	0.354	1.16	1	1	0.689	0.958	0.795	0.858	0.671
UMC-11	0.418	0.472	0.523	0.434	0.46	0.464	0.47	0.452	0.396	1.08	0.928	0.643	0.365	0.398	0.321	0.259	0.207
